Data as given in article PMC10755736, “Modulating Liquid–Liquid Phase Separation of Nck Adaptor Protein against Enteropathogenic Escherichia coli Infection” (ACS Central Science, 2023).
Non-standard residues stand in square brackets, D forms with d. Residues, ends and D or L forms follow the SMILES beside them. *: point of attachment. Biotin = O=C1N[C@H]2[C@H](CS[C@H]2CCCCC(=O)*)N1; Benzoyl(3-SO2F) = O=C(c1cccc(S(=O)(=O)F)c1)*; pY = N[C@@H](Cc1ccc(OP(=O)(O)O)cc1)C(=O)O; Dap = NC[C@H](N)C(=O)O

Experiments:
[1] = test system: EPEC infection of Caco-2 cells; assay: EPEC infection assay of Caco-2 cells (CFU counts); type: cell-based, enteropathogenic Escherichia coli; details: with L17E-mediated delivery, L17E 40 μM
Protocol: Lastly, to examine whether pretreatment of Caco-2 cells with L17E/p1 could prevent EPEC infection, we first established a bacterial infection assay (Figure 7a). Caco-2 cells were pretreated with L17E/p1 for 2 h. After excess peptides were removed, Caco-2 cells were then infected with EPEC at different multiplicity of infection (MOI) values (MOI is commonly defined as the ratio of infectious bacteria to cells in a culture) for 3 h, and extra bacterial cells were removed from the culture. Next, gentamicin was added to the cell culture to remove EPEC that are merely attached to the surface of Caco-2 cells, leaving only engulfed EPEC inside Caco2 cells to be counted (gentamicin treatment will not kill intracellular bacteria due to its cellular impermeability). After gentamicin was washed away, cells were lysed to release EPEC cells inside, and the cell lysates were diluted to count the number of EPEC cells as colony-forming units (cfu) on agar plates.
Caco-2 cells were seeded in a 24-well plate at a density of 1×10^4 cells for 24 h and pretreated with peptide complexes for 2 h. After washing with DMEM, cells were infected with EPEC at selected MOI values for 3 h at 37 ℃. Cells were then treated with gentamicin ([…]) for 2 h and lysed with 1% […]
Triton X-100 for 15 min. […]
The sample was loaded onto 12% SDS/PAGE glycerol gel and then transferred onto a PVDF membrane using Bio-Rad […]. The membrane was blocked and incubated with a rabbit anti-Nck antibody (Abcam, Hong Kong) at 4 °C overnight, followed by a n anti -rabbit HRP -labeled secondary antibody (Abcam, Hong Kong).
SPSS 23.0 statistical software was used to process experimental data. The differences between mean ± SEM of three independent experiments were assessed by Student's t -test.

Nck = molecular target: T1, Nck (Homo sapiens, UniProt P16333); assay: Crosslinking of peptides with recombinant Nck in vitro (SDS-PAGE, Western blotting); type: binding; details: peptide:Nck 5:1, 37 °C, PBS, 1 h; SDS-PAGE and anti-biotin Western blotting
T1 construct: GST (followed by PreScission/HRV 3C site) (N, cleaved yes); made in house; host or cells: E. coli BL21(DE3)
Description: Although peptide Y474 can block Nck-mediated LLPS, the requirement of a high concentration of the blocker peptide is hard to achieve inside the cell. […] The side chains of the Nck lysine residues are pointing toward the residues at pY+1 and pY+2 positions with distances of only 4 to 6 Å. This unique feature gives us an opportunity to design covalent blockers for Nck-SH2 by installing electrophiles at the pY+1 or pY+2 positions to enable a proximal conjugation reaction with one of the lysine residues. Covalent blockage through the characteristic lysine residues will maximize the specificity of the inhibitor toward Nck-SH2. As sulfonyl fluoride has been reported to react with proteinaceous nucleophiles such as lysine, histidine, or cysteine,[34] we installed a sulfonyl fluoride group on the side chain of diaminopropionic acid, giving an unnatural amino acid X1 at different positions such as pY+1 (Asp6) and pY+3 (Val8) of peptide EEHIpYDEVAAD. Besides the amino acid X1, we also included α-chloroacetyl-carrying amino acids X2 and X3, which may also react with proteineous nucleophiles. Electrophile-containing reactive peptides p1 to p11 were synthesized with a biotin tag at the N-termini (Figure 4b). After the reactive peptides were incubated with recombinant Nck protein at a 5:1 ratio at 37 °C in PBS for 1 h, the formation of covalently linked Nck–peptide conjugates could be observed, shown as new protein bands with molecular weights higher than that of Nck based on denatured SDS-PAGE and Western blotting analysis against biotin (Figure 4c). […] At 37 °C in PBS buffer, the 1:1 reaction efficiency reached 50% in 2 min (Figure S4 in the Supporting Information).
Figure 4 Covalently reactive peptides designed based on a Tir peptide. (a) Crystal structure of Nck-SH2 in complex with a peptide EEHIpYDEVAAD from EPEC protein Tir (PDB: 2CI9). (b) List of synthetic reactive peptides. (c) Unnatural amino acids in the peptides. (d) SDS-PAGE (top) and Western blotting (bottom) analyses showing covalent conjugation of the peptides with Nck. […]

Nck-SH2 = details: cited from earlier work
Description: Phosphorylated Tir is known to bind to Nck-SH2. […] Also, the sequence of nephrin contains three Tyr-containing sequences that are similar to those of the Tir peptide: HLYDEV, PLYDEV, and GIYDQV (the potential phosphorylation sites are underscored), with a hydrophobic residue at the pY-1 site, and negatively charged residues at pY+1 and/or pY+2 (Figure 2c). Therefore, we reason that phosphorylation at these Tyr turns nephrin into p-nephrin, a ...

CC[C@H](C)[C@H](NC(=O)[C@H](Cc1c[nH]cn1)NC(=O)[C@H](CCC(=O)O)NC(=O)[C@H](CCC(=O)O)NC(=O)[C@@H]1CCCN1)C(=O)N[C@@H](Cc1ccc(OP(=O)(O)O)cc1)C(=O)N[C@@H](CC(=O)O)C(=O)N[C@@H](CCC(=O)O)C(=O)N[C@H](C(=O)N[C@@H](C)C(=O)N[C@@H](C)C(=O)N[C@@H](CC(=O)O)C(=O)N1CCC[C@H]1C(=O)NCC(N)=O)C(C)C [Y474]
blockage of EPEC invasion/infection of Caco-2 cells [1]: can block EPEC invasion to Caco-2 cells

CC[C@H](C)[C@H](NC(=O)[C@H](Cc1c[nH]cn1)NC(=O)[C@H](CCC(=O)O)NC(=O)[C@H](CCC(=O)O)NC(=O)CCCC[C@@H]1SC[C@@H]2NC(=O)N[C@@H]21)C(=O)N[C@@H](Cc1ccc(OP(=O)(O)O)cc1)C(=O)N[C@@H](CC(=O)O)C(=O)N[C@@H](CCC(=O)O)C(=O)N[C@H](C(=O)N[C@@H](C)C(=O)N[C@@H](C)C(=O)N[C@@H](CNC(=O)c1cccc(S(=O)(=O)F)c1)C(N)=O)C(C)C [p7] (Biotin-EEHI[pY]DEVAA[Dap](Benzoyl(3-SO2F))-NH2)
reactivity with Nck (Nck): noticeable reactivity

EEHIpYDEVAADP [12-residue pY-containing Tir peptide]
binding to Nck-SH2 (Nck-SH2): strong binder to Nck-SH2
